For 5 compounds, mutagenic call results are on record in PubChem BioAssay AID1259407 (Chemical Carcinogenesis Research Information System (CCRIS), 2018).

This series has as its system CCRIS mutagenicity, Ames/micronucleus/aberration tests. Briefly: CCRIS mutagenicity studies.
The mark [1] stands for this setting: Test System: AMES SALMONELLA TYPHIMURIUM, Strain/Indicator: TA98, Metabolic Activation: NONE, Method: STANDARD PLATE.
[2] abbreviates: Test System: AMES SALMONELLA TYPHIMURIUM, Strain/Indicator: TA100, Metabolic Activation: NONE, Method: STANDARD PLATE.
The mark [3] stands for this setting: Test System: AMES SALMONELLA TYPHIMURIUM, Strain/Indicator: TA98, Metabolic Activation: RAT, LIVER, S-9, AROCLOR 1254, Method: STANDARD PLATE.
Setting [4] is: Test System: AMES SALMONELLA TYPHIMURIUM, Strain/Indicator: TA100, Metabolic Activation: RAT, LIVER, S-9, AROCLOR 1254, Method: STANDARD PLATE.
[5] abbreviates: Test System: AMES SALMONELLA TYPHIMURIUM, Strain/Indicator: TA1535, Metabolic Activation: NONE, Method: STANDARD PLATE.
Setting [6] is: Test System: AMES SALMONELLA TYPHIMURIUM, Strain/Indicator: TA1535, Metabolic Activation: RAT, LIVER, S-9, AROCLOR 1254, Method: STANDARD PLATE.
[7] abbreviates: Test System: AMES SALMONELLA TYPHIMURIUM, Strain/Indicator: TA1537, Metabolic Activation: NONE, Method: STANDARD PLATE.
Setting [8] is: Test System: AMES SALMONELLA TYPHIMURIUM, Strain/Indicator: TA1537, Metabolic Activation: RAT, LIVER, S-9, AROCLOR 1254, Method: STANDARD PLATE.
The mark [9] stands for this setting: Test System: AMES SALMONELLA TYPHIMURIUM, Strain/Indicator: TA1538, Metabolic Activation: NONE, Method: STANDARD PLATE.
[10] abbreviates: Test System: AMES SALMONELLA TYPHIMURIUM, Strain/Indicator: TA1538, Metabolic Activation: RAT, LIVER, S-9, AROCLOR 1254, Method: STANDARD PLATE.
Where [11] appears, read: Test System: AMES SALMONELLA TYPHIMURIUM, Strain/Indicator: TA102, Metabolic Activation: NONE, Method: PREINCUBATION

SMILES strings stand for the structures. Activity calls are given as the source filed them. How the calls were made is not given here.

Regarding `CC(=O)c1cc2c(cc1C)C(C)(C)C(C)C2(C)C` (stereo not given), the mutagenic call by setting is: (Test System: AMES SALMONELLA TYPHIMURIUM, Strain/Indicator: TA97, Metabolic Activation: NONE, Method: STANDARD PLATE) “inactive; negative”; (Test System: AMES SALMONELLA TYPHIMURIUM, Strain/Indicator: TA97, Metabolic Activation: RAT LIVER S-9, AROCLOR 1254, Method: STANDARD PLATE) “inactive; negative”; under setting [1], “inactive; negative”; (Test System: AMES SALMONELLA TYPHIMURIUM, Strain/Indicator: TA98, Metabolic Activation: RAT LIVER S-9, AROCLOR 1254, Method: STANDARD PLATE) “inactive; negative”; under setting [2], “inactive; negative”; (Test System: AMES SALMONELLA TYPHIMURIUM, Strain/Indicator: TA100, Metabolic Activation: RAT LIVER S-9, AROCLOR 1254, Method: STANDARD PLATE) “inactive; negative”. Moreover, the mutagenic call runs as follows: (Test System: AMES SALMONELLA TYPHIMURIUM, Strain/Indicator: TA102, Metabolic Activation: NONE, Method: STANDARD PLATE) “inactive; negative”; (Test System: AMES SALMONELLA TYPHIMURIUM, Strain/Indicator: TA102, Metabolic Activation: RAT LIVER S-9, AROCLOR 1254, Method: STANDARD PLATE) “inactive; negative”.

For the compound `N#CC1=C(C#N)SCCS1`, the mutagenic call under setting [1] was “inactive; negative”; the mutagenic call under setting [3] is “inactive; negative”; the mutagenic call under setting [2] was “inactive; negative”; the mutagenic call under setting [4] was “inactive; negative”; the mutagenic call under setting [5] is “inactive; negative”; the mutagenic call under setting [6] is “inactive; negative”. The mutagenic call by setting is: under setting [7], “inactive; negative”; under setting [8], “inactive; negative”; under setting [9], “inactive; negative”; under setting [10], “inactive; negative”.

With `Nc1ccc(S(N)(=O)=O)cc1`, the mutagenic call is “inactive; negative” (End Point: IN VITRO CHROMOSOMAL ABERRATIONS, Test System: CHINESE HAMSTER OVARY CELLS, Metabolic Activation: NONE); “inactive; negative” (End Point: IN VITRO CHROMOSOMAL ABERRATIONS, Test System: CHINESE HAMSTER OVARY CELLS, Metabolic Activation: RAT, LIVER, S-9, AROCLOR 1254); “inactive; negative” (Test System: AMES SALMONELLA TYPHIMURIUM, Strain/Indicator: TA98, Metabolic Activation: HAMSTER, LIVER, S-9, AROCLOR 1254, Method: STANDARD PLATE); “inactive; negative” under setting [1]; “inactive; negative” under setting [3]; “inactive; negative” (Test System: AMES SALMONELLA TYPHIMURIUM, Strain/Indicator: TA100, Metabolic Activation: HAMSTER, LIVER, S-9, AROCLOR 1254, Method: STANDARD PLATE). Further, the mutagenic call under setting [2] was “inactive; negative”; the mutagenic call under setting [4] is “inactive; negative”; the mutagenic call (Test System: AMES SALMONELLA TYPHIMURIUM, Strain/Indicator: TA1535, Metabolic Activation: HAMSTER, LIVER, S-9, AROCLOR 1254, Method: STANDARD PLATE) is “inactive; negative”; the mutagenic call under setting [5] is “inactive; negative”; the mutagenic call under setting [6] was “inactive; negative”; the mutagenic call (Test System: AMES SALMONELLA TYPHIMURIUM, Strain/Indicator: TA1537, Metabolic Activation: HAMSTER, LIVER, S-9, AROCLOR 1254, Method: STANDARD PLATE) was “inactive; negative”. In addition, the mutagenic call runs as follows: under setting [7], “inactive; negative”; under setting [8], “inactive; negative”; (Test System: AMES SALMONELLA TYPHIMURIUM, Strain/Indicator: TA1538, Metabolic Activation: HAMSTER, LIVER, S-9, AROCLOR 1254, Method: STANDARD PLATE) “inactive; negative”; under setting [9], “inactive; negative”; under setting [10], “inactive; negative”; (Test System: MOUSE LYMPHOMA, Strain/Indicator: L5178Y (TK+/TK-), Metabolic Activation: NONE, Method: SUSPENSION/PLATE) “inactive; negative”. Further, the mutagenic call (Test System: MOUSE LYMPHOMA, Strain/Indicator: L5178Y (TK+/TK-), Metabolic Activation: RAT, LIVER, S-9, AROCLOR 1254, Method: SUSPENSION/PLATE) was “inactive; negative”; the mutagenic call (Test System: Mouse lymphoma, Strain/Indicator: L5178Y (tk+/tk-), Metabolic Activation: None, Method: Suspension/plate) was “inactive; negative”; the mutagenic call (Test System: Mouse lymphoma, Strain/Indicator: L5178Y (tk+/tk-), Metabolic Activation: Rat, Liver, S-9, Aroclor 1254, Method: Suspension/plate) is “inactive; negative”.

As for `Cc1c(N)nc(C(CC(N)=O)NCC(N)C(N)=O)nc1C(=O)NC(C(=O)NC(C)C(O)C(C)C(=O)NC(C(=O)NCCc1nc(-c2nc(C(=O)O)cs2)cs1)C(C)O)C(OC1OC(CO)C(O)C(O)C1OC1OC(CO)C(O)C(OC(N)=O)C1O)c1cnc[nH]1` (stereo not given), under setting [11], the mutagenic call is “inactive; negative”.

Regarding `Nc1ccc2c(c1)CN1C(=O)c3ccccc3C1=N2`, the mutagenic call is “active; positive” (Test System: AMES SALMONELLA TYPHIMURIUM, Strain/Indicator: DJ400, Metabolic Activation: RAT, LIVER, S-9, AROCLOR 1254, Method: PREINCUBATION); “active; positive” (Test System: AMES SALMONELLA TYPHIMURIUM, Strain/Indicator: DJ460, Metabolic Activation: RAT, LIVER, S-9, AROCLOR 1254, Method: PREINCUBATION); “active; positive” (Test System: AMES SALMONELLA TYPHIMURIUM, Strain/Indicator: TA98(1,8-DNP6), Metabolic Activation: RAT, LIVER, S-9, AROCLOR 1254, Method: PREINCUBATION); “active; positive” (Test System: AMES SALMONELLA TYPHIMURIUM, Strain/Indicator: TA98, Metabolic Activation: NONE, Method: PREINCUBATION); “active; positive” (Test System: AMES SALMONELLA TYPHIMURIUM, Strain/Indicator: TA98, Metabolic Activation: RAT, LIVER, S-9, AROCLOR 1254, Method: PREINCUBATION); “active; positive” (Test System: AMES SALMONELLA TYPHIMURIUM, Strain/Indicator: TA100, Metabolic Activation: NONE, Method: PREINCUBATION). For the same compound, the mutagenic call (Test System: AMES SALMONELLA TYPHIMURIUM, Strain/Indicator: TA100, Metabolic Activation: RAT, LIVER, S-9, AROCLOR 1254, Method: PREINCUBATION) was “active; positive”; the mutagenic call under setting [11] was “active; positive”; the mutagenic call (Test System: AMES SALMONELLA TYPHIMURIUM, Strain/Indicator: TA102, Metabolic Activation: RAT, LIVER, S-9, AROCLOR 1254, Method: PREINCUBATION) was “active; positive”; the mutagenic call (Test System: AMES SALMONELLA TYPHIMURIUM, Strain/Indicator: TA1538(1,8-DNP6), Metabolic Activation: RAT, LIVER, S-9, AROCLOR 1254, Method: PREINCUBATION) was “active; positive”; the mutagenic call (Test System: AMES SALMONELLA TYPHIMURIUM, Strain/Indicator: TA1538, Metabolic Activation: RAT, LIVER, S-9, AROCLOR 1254, Method: PREINCUBATION) is “active; positive”; the mutagenic call (Test System: AMES SALMONELLA TYPHIMURIUM, Strain/Indicator: YG1012, Metabolic Activation: RAT, LIVER, S-9, AROCLOR 1254, Method: PREINCUBATION) is “active; positive”. For the same compound, the mutagenic call was “active; positive” (Test System: AMES SALMONELLA TYPHIMURIUM, Strain/Indicator: YG1024, Metabolic Activation: RAT, LIVER, S-9, AROCLOR 1254, Method: PREINCUBATION); “active; positive” (Test System: UDS MOUSE HEPATOCYTES, Strain/Indicator: THY INCORP, Metabolic Activation: NONE, Method: AUTORADIOGRAPHY); “active; positive” (Test System: UDS RAT HEPATOCYTES, Strain/Indicator: THY INCORP, Metabolic Activation: NONE, Method: AUTORADIOGRAPHY).
